Laboratory results from paper PMC11862990, “Utility of 6-aza-2-thiothymine in the synthesis of novel [1,2,4]triazolo[4,3-b][1,2,4]triazin-7-one derivatives: synthesis, structure elucidation, molecular docking and in vitro anti-lung cancer activity” (RSC Advances, 2025).
Several values for one entry are separate records, joined by “and”; a condition that tells them apart may be missing. Equal entries are not always repeated. Where two headings read alike, the source gives them in different places. Marks after values point to notes of the source that are not given here.

Key:
[1] = system: lung cancer cell lines (A549); assay: DNA damage evaluation using the comet assay; assay type: cell-based, human; settings: for DNA damaged cells% (mean ± SEM): A549, comet assay, negative control 11.59 ± 0.65; for Class 0 cells (no tail) / Class 1 cells (tail length < diameter of the nucleus) / Class 2 cells (tail length between 1× and 2× the diameter of the nucleus) / Class 3 cells (tail length > 2× the diameter of the nucleus) / No. of cells: Comets: A549, of 440 cells analyzed
Description: The determination of DNA damage via the comet assay was conducted using lung cancer cell lines, following the methodology established by Olive et al. (1990).[32] Following trypsin treatment to generate a single-cell suspension, approximately 1.5 × 10^4 cells were embedded in 0.75% low-gelling-temperature agarose and swiftly pipetted onto a pre-coated microscope slide.
The samples underwent lysis for 4 hours at 50 °C in a solution containing 0.5% SDS and 30 mM EDTA at pH 8.0. Following an overnight rinse at room temperature in a Tris/borate/EDTA buffer, pH 8.0, samples underwent electrophoresis for 25 minutes at 0.6 V cm^−1 and were subsequently stained with propidium iodide. The slides were examined with a fluorescence microscope equipped with a CCD camera, and 150 individual comet images were analyzed from each sample for a tail moment, DNA content, and percentage of DNA in the tail.
The non-overlapping cells were randomly selected and assigned a score on a scale of 0–3 based on the comet tail length migration and the relative proportion of DNA in the nucleus. Class 0 indicates no detectable DNA damage and no tail; class 1 indicates a tail length less than the diameter of the nucleus; class 2 indicates a tail length between 1× and 2× the nuclear diameter; and class 3 indicates a tail longer than 2× the diameter of the nucleus (Collins et al., 1997).[33]

[2] = system: BJ1 (normal skin fibroblast)
Description: Using specific human cancer cell lines, the anti-proliferative effectiveness of compounds 7a–j was evaluated in an in vitro assay. The anti-cancer activity of these compounds (7a–j) on various cancer cell lines, including PC3 (Prostate cell line), A549 (Lung carcinoma), PACA2 (Pancreatic cancer cell line) and BJ1 (normal skin fibroblast), was investigated in this study using the 3-(4,5-dimethylthiazol-2-yl)-2,5-diphenyltetrazolium bromide (MTT) test.
In the initial screening trial, a single dosage concentration of 100 μg ml^−1 was applied for 48 hours. The cytotoxicity of the treated cells was determined by calculating the cell death percentage (% mortality) as a percentage of untreated cells (Table 2).
Cell viability was tested using the MTT assay, 3-(4,5-dimethylthiazol-2-yl)-2,5-diphenyl-tetrazolium bromide (Bio Basic Canada Inc. Toronto, Canada).[26] Under class II biosafety regulations, the procedures were carried out in a sterile laminar air flow cabinet (Baker, SG403INT; Sanford, ME, USA). Cell lines were obtained from the American type culture collection (ATCC) as a gift from Dr Stig Linder, Karonisca Institute, Sweden. All incubations were performed at 37 °C in a 5% CO2 incubator with a 95% humidified environment (Sheldon, TC2323; Cornelius, OR, USA). 96-well micro titer polypropylene plates were seeded with cells at a density of 10^4 cells per well in complete DMEM media, and the cells were allowed to adhere for 24 hours. After the media was aspirated, the tested compounds were added to the cells in a single dose of 100 μg ml^−1 in DMSO. Each well received 40 μl of MTT salt ([…]) following a 48 hour incubation period. 200 μl of 10% sodium dodecyl sulfate (SDS) was added to each well after the reaction ended, and any formazan crystals that could have been produced were dissolved by two hours of incubator heating to 37 °C. The amount of formazan product was measured at 595 nm using a microplate reader (Bio-Rad Laboratories, model 3350, California, USA) with a reference wavelength of 690 nm, serving as a backdrop. Rather than the drugs under investigation, the medium was applied to the untreated cells (negative control). The examined compounds were dissolved in dimethylsulfoxide (DMSO), and the final concentration in the cells was less than 0.2%. For each compound and the control, the solvent concentration was the same.

SMILES	DNA damaged cells% (mean ± SEM) [1]	Class 0 cells (no tail) [1]	Class 1 cells (tail length < diameter of the nucleus) [1]	Class 2 cells (tail length between 1× and 2× the diameter of the nucleus) [1]	Class 3 cells (tail length > 2× the diameter of the nucleus) [1]	No. of cells: Comets [1]	(%) Mortality BJ1 (cytotoxicity percentage on normal cells) ([2]; 100 μg ml^−1, 48 hours, MTT)	(%) Mortality BJ1 (cytotoxicity percentage on normal cells) ([2]; human, 48 h, 100 μg ml^−1)
COc1ccc(-c2nn(-c3ccccc3)c3nc(=O)c(C)nn23)cc1 [Compound 7g, 3-(4-Methoxyphenyl)-6-methyl-1-phenyl-[1,2,4]triazolo[4,3-b][1,2,4]triazin-7(1H)-one]	21.14 ± 0.85^b %	347	32	38	23	93	2.8% and 2.8 ± 0.71%	
Cc1nn2c(C)nn(-c3ccc([N+](=O)[O-])cc3)c2nc1=O [Compound 7a, 3,6-Dimethyl-1-(4-nitrophenyl)-[1,2,4]triazolo[4,3-b][1,2,4]triazin-7(1H)-one]	28.18 ± 1.25^a %	316	37	45	42	124	3.5% and 3.5 ± 1.16%	
COc1cccc2c1C(=O)c1c(O)c3c(c(O)c1C2=O)C[C@@](O)(C(=O)CO)C[C@@H]3O[C@H]1C[C@H](N)[C@H](O)[C@H](C)O1 [Dox, Doxorubicin, reference compound]	23.86 ± 1.11^b %	335	34	41	30	105		1.10 ± 0.52%
